{"source": "patent US20060154984A1", "about": "“Therapeutic use of acyl glycerols and the nitrogen- and sulphur- containing analogues thereof” (priority 2003, published 2006)", "key": {"[1]": {"test": "Plasma lipids in Sprague Dawley rats according to the formulation used", "type": "in vivo, rat", "settings": "gavage every day for 15 days, with Cremophor RH40 compared with CMC and Solutol HS15", "experimental": "A 0.5% (mN) solution of CMC was prepared in water and mixed with 0.1% (VN) Tween 80, then stirred overnight. The inventive compounds were then added and dissolved by stirring and ultrasonication for 30 minutes at 60° C.\nThe emulsion comprising an inventive compound and a surfactant, Cremophor® RH40 (Polyoxyl 40 Hydrogenated Castor Oil) or Solutol® HS15 (polyethylene glycol 660 12-hydroxystearate) was prepared as follows: the inventive compound was dissolved in a solution of Cremophor® RH40 or Solutol® HS15 previously heated in a water-bath at 60° C. in a ratio for example of 6:1 (m/m). The mixture was placed in a water-bath at 60° C. until a homogeneous mixture was obtained. Said mixture was then dispersed by ultrasonication for 20 minutes at 60° C., at which time the solution became translucid. While stirring, water (MilliQ) preheated at 60° C. was added to the solution to give the desired concentration of the compound. The solution was then mixed on a Vortex® mixer, returned to the water-bath (60° C.) and optionally dispersed by ultrasonication for 30 minutes.\nTo this end, the compounds were administered by gavage to Sprague Dawley rats every day for 15 days. […]"}, "[2]": {"system": "6-OHDA-induced dopaminergic lesion", "test": "Rat model of Parkinson's disease (6-OHDA), behavioral sensitization to apomorphine", "type": "in vivo", "settings": "Wistar rats, 300 mg/kg per day in diet, 7 days before and 15 days after 6-OHDA lesion", "experimental": "(§1) Adult male Wistar rats (280-300 g) were maintained on a 12-hour light/dark cycle at a constant temperature of 20±3° C. Animals had access to food and water ad libitum and weight gain was recorded.\n(§2) Animals were fed a normal diet or a diet supplemented with the inventive compounds (300 mg/kg per day) for 7 days before induction of the dopaminergic lesion and for 15 days after induction of same.\n6-hydroxydopamine (6-OHDA) is a neurotoxin taken up by dopaminergic neurons via a dopamine transporter. Injection of said compound into striatonigral projections induces selective destruction of dopaminergic neurons, and has allowed the development of many animal models of Parkinson's disease (Bordet et al., 2000).\n(§3) Seven days after commencement of treatment with the inventive compounds, the rats were stereotactically injected with 6-OHDA (4 μg for 8 min) or buffer (sham rats) in the left part of the median tract of the telencephalon to induce striatonigral denervation.\nApomorphine is a dopaminergic agonist which stimulates D1 and D2 receptors. The intensity of rotational behavior is an index allowing to measure the severity of the striatonigral lesion. At the end of the treatment, rats received an intraperitoneal injection of apomorphine and rotational behavior was evaluated 15 minutes after sensitization and for a 10 minute period."}, "LDL": {"system": "LDL", "test": "LDL oxidation by copper, conjugated diene formation (OD 234 nm)", "type": "biochemical", "settings": "10^−4 M", "experimental": "Oxidation of LDL is an important modification which plays a major role in the onset and development of atherosclerosis (Jurgens, Hoff et al. 1987). […] Unless otherwise indicated, all reagents were from Sigma (St Quentin, France).\nLDL were prepared as described by Lebeau et al. (Lebeau, Furman et al. 2000). The solutions of the test compounds were prepared at 10^−2 M in ethanol and diluted in PBS so that the final concentration ranged from 0.1 to 100 μM with a total ethanol concentration of 1% (VN).\nBefore oxidation, EDTA was removed from the LDL preparation by dialysis. The oxidation reaction was then carried out at 30° C. by adding 100 μl of 16.6 μM CuSO4 to 800 μl of LDL (125 μg protein/ml) and 100 μl of a test compound solution. The formation of dienes, the species to be followed, was measured by the optical density at 234 nm in the samples treated with the compounds in the presence or absence of copper. Optical density at 234 nm was measured every 10 minutes for 8 hours on a thermostated spectrophotometer (Kontron Uvikon 930). The analyses were carried out in triplicate. A compound was considered to have antioxidant activity when it shifted the lag phase latency relative to the control sample. […] FIG. 4 presents an example of the results obtained with the inventive compounds."}, "dopaminergic neurons": {"system": "dopaminergic neurons", "test": "Rat model of Parkinson's disease (6-OHDA), immunohistochemistry with anti-TH antibody", "type": "in vivo", "settings": "Wistar rats, 300 mg/kg per day in diet, 6-OHDA lesion; versus rats fed a normal diet", "experimental": "as §1, §2, §3\nTyrosine hydroxylase (TH) is an enzyme which catalyzes the transformation of tyrosine to […]. It is used to label dopaminergic neurons. After the apomorphine sensitization test, the animals were sacrificed and the brains were removed. Brain slices were incubated with anti-TH antibody (SCBT, Santa Cruz, Calif.) and then with a second biotinylated antibody. Visualization was with the ABC staining system kit (Tebu) according to the supplier's instructions.\nViable cells labelled with anti-TH antibody (TH+ cells) were counted. […]"}}, "data": [{"smiles": "CCCCCCCCCCCCCCSCC(=O)OCC(COC(=O)CSCCCCCCCCCCCCCC)OC(=O)CSCCCCCCCCCCCCCC", "note": "[Ex 4a, 1,2,3-tritetradecylthioacetylglycerol]", "values": [{"measurement": "plasma triglycerides", "setting": "[1]", "value": "larger decrease"}, {"measurement": "total plasma cholesterol", "setting": "[1]", "value": "larger decrease"}, {"measurement": "number of apomorphine-induced rotations", "setting": "[2]", "value": "prophylactic and curative properties"}, {"measurement": "LDL oxidation rate (rate of conjugated diene formation)", "setting": "LDL; copper alone 3 nmol/min/mg of LDL", "value": "1 nmol/min/mg of LDL"}, {"measurement": "decrease in the maximum amount of conjugated dienes formed", "setting": "LDL; copper alone 496 nmol per mg of LDL", "value": 60, "unit": "%"}, {"measurement": "lag phase for conjugated diene formation", "setting": "LDL; copper alone 104 minutes", "value": 270, "unit": "min"}, {"measurement": "decrease in the oxidation rate", "setting": "LDL; relative to copper alone", "value": 66, "unit": "%"}, {"measurement": "increase in the lag phase", "setting": "LDL; relative to copper alone", "value": 160, "unit": "%"}, {"measurement": "number of neurons labelled with anti-tyrosine hydroxylase (TH+ neurons)", "setting": "dopaminergic neurons", "value": "greater number of neurons"}]}]}
